Values quoted from earlier work as cited in US20100172986A1, “CONTROLLED RELEASE COMPOSITION AND PREPARATION THEREOF” (LOTUS PHARMACEUTICAL CO., LTD., priority 2006, published 2010).

Conditions: in adults

**Q.** With CCCC(CCC)C(=O)O [valproic acid, 2-Propylpentanoic acid] as the compound, how does the elimination half-life read?
**A.** six and seventeen
